Laboratory results as given in the supplement of paper PMC8882468.

Key:
Assay in all cases: CTG-3D luminescence at 96 h relative to day-0 seeding control (ratio to day 0); higher = more growth / less cytotoxicity; PDxO 3D drug screen, 96 h, CTG-3D normalised to day-0 seeding control.
HCI-001 = test system: HCI-001 (organoid from a triple-negative breast cancer xenograft)
HCI-002 = test system: HCI-002 (organoid from a triple-negative breast cancer xenograft)
HCI-003.E2 = test system: HCI-003.E2 (organoid from an ER-positive breast cancer xenograft)
HCI-019 = test system: HCI-019 (organoid from a triple-negative breast cancer xenograft)
HCI-024 = test system: HCI-024 (organoid from a breast cancer xenograft)

NC(=O)Nc1cc(-c2cccc(F)c2)sc1C(=O)N[C@H]1CCCNC1 [AZD7762]
CTG-3D luminescence at 96 h
Details | 12.5 pM | 0.00025 µM | 0.005 µM | 0.1 µM | 1 µM | 10 µM | 100 µM | 625 fM
HCI-001, days in culture: 240 | 1.67 | 0.879 | 1.07 | 1 | 0.663 | 0.189 | 0.00603 | 1.14
HCI-001, days in culture: 260 | 1.93 | 1.02 | 1.44 | 0.935 | 0.787 | 0.243 | 0.00469 | 1.07
HCI-001, days in culture: 269 | 1.68 | 1.84 | 1.41 | 1.25 | 0.48 | 0.388 | -0.00671 | 1.59
HCI-001, days in culture: 327 | 1.38 | 1.77 | 1.85 | 1.38 | 0.567 | 0.168 | 0.00741 | 1.6
HCI-001, days in culture: 346 | 1.38 | 1.49 | 1.23 | 0.907 | 0.392 | 0.184 | 0.0108 | 1.21
HCI-001, days in culture: 364 | 1.53 | 1.16 | 1.51 | 1.03 | 0.466 | 0.201 | 0.00492 | 1.71
HCI-002, days in culture: 62 | 2.52 | 2.46 | 2.85 | 2.92 | 1.41 | 0.539 | 0.00339 | 3.08
HCI-002, days in culture: 82 | 2.71 | 3.02 | 2.27 | 2.44 | 1.47 | 0.623 | 0.00321 | 2.87
HCI-002, days in culture: 91 | 3.98 | 3.93 | 3.26 | 3.87 | 2.42 | 0.946 | 0.00426 | 4.19
HCI-002, days in culture: 191 | 2.47 | 2.51 | 2.36 | 2.27 | 2 | 0.525 | 0.00388 | 2.69
HCI-002, days in culture: 209 | 2.16 | 2.27 | 2.12 | 1.89 | 1.31 | 0.332 | 0.00089 | 2.27
HCI-002, days in culture: 227 | 5.71 | 5.98 | 5.18 | 5.24 | 2.21 | 0.595 | -0.201 | 6.1
HCI-019, days in culture: 110 | 2.48 | 1.62 | 1.33 | 1.06 | 0.333 | 0.13 | -0.000246 | 2.15
HCI-019, days in culture: 131 | 2.56 | 4.24 | 2.81 | 2.99 | 0.541 | 0.193 | 0.00562 | 4.04
HCI-019, days in culture: 152 | 1.82 | 2.74 | 2.11 | 1.11 | 0.437 | 0.149 | 0.00479 | 3.06
HCI-024, days in culture: 105 | 1.28 | 1.48 | 1.42 | 0.635 | 0.236 | 0.228 | 0.00249 | 1.9
HCI-024, days in culture: 122 | 1.65 | 2.38 | 1.93 | 0.853 | 0.308 | 0.273 | 0.00352 | 2.89
HCI-024, days in culture: 163 | 1.95 | 1.96 | 2.02 | 1.27 | 0.309 | 0.267 | 0.00535 | 2.34

HCI-003.E2
Details | CTG-3D luminescence at 96 h
12.5 pM | 2.21
0.00025 µM | 2.59
0.005 µM | 1.96
0.1 µM | 1.78
1 µM | 1.12
10 µM | 0.769
100 µM | 0.0016
625 fM | 2.21

O=C(/C=C/c1cccnc1)NCCCCC1CCN(C(=O)c2ccccc2)CC1 [FK866]
CTG-3D luminescence at 96 h
Details | 12.5 pM | 0.00025 µM | 0.005 µM | 0.1 µM | 1 µM | 10 µM | 100 µM | 625 fM
HCI-001, days in culture: 240 | 1.51 | 1.26 | 0.813 | 0.167 | 0.113 | 0.0983 | 0.134 | 1.79
HCI-001, days in culture: 260 | 2.05 | 0.894 | 0.497 | 0.126 | 0.107 | 0.113 | 0.125 | 1.44
HCI-001, days in culture: 269 | 1.52 | 1.61 | 1.1 | 0.0874 | 0.0522 | 0.0578 | 0.0645 | 1.6
HCI-001, days in culture: 327 | 1.45 | 0.495 | 0.617 | 0.125 | 0.0812 | 0.0548 | 0.0869 | 1.78
HCI-001, days in culture: 346 | 1.25 | 1.28 | 0.416 | 0.063 | 0.0715 | 0.0541 | 0.128 | 1.08
HCI-001, days in culture: 364 | 1.18 | 1.03 | 0.913 | 0.0658 | 0.0511 | 0.0476 | 0.0948 | 1.5
HCI-002, days in culture: 62 | 2.68 | 2.55 | 1.43 | 0.0472 | 0.0154 | 0.014 | 0.0284 | 3.07
HCI-002, days in culture: 82 | 2.77 | 3.14 | 0.508 | 0.0661 | 0.0553 | 0.0327 | 0.0409 | 3.06
HCI-002, days in culture: 91 | 3.92 | 3.63 | 1.55 | 0.0716 | 0.0287 | 0.025 | 0.0475 | 4.36
HCI-002, days in culture: 191 | 2.81 | 2.7 | 0.424 | 0.0805 | 0.0595 | 0.0599 | 0.0916 | 2.43
HCI-002, days in culture: 209 | 2.49 | 2.33 | 1.05 | 0.0589 | 0.0401 | 0.0272 | 0.062 | 2.4
HCI-002, days in culture: 227 | 5.05 | 5.39 | 3.02 | 0.104 | 0.0406 | 0.0434 | 0.0754 | 5.65
HCI-019, days in culture: 110 | 2.11 | 0.4 | 0.0804 | 0.0554 | 0.0484 | 0.0475 | 0.042 | 2.64
HCI-019, days in culture: 131 | 1.91 | 1.42 | 0.669 | 0.542 | 0.448 | 0.436 | 0.137 | 3.64
HCI-019, days in culture: 152 | 1.88 | 1.08 | 0.557 | 0.476 | 0.267 | 0.142 | 0.0796 | 1.93
HCI-024, days in culture: 105 | 1.87 | 1.72 | 0.265 | 0.2 | 0.157 | 0.205 | 0.272 | 2.1
HCI-024, days in culture: 122 | 2.43 | 2.32 | 0.648 | 0.179 | 0.209 | 0.222 | 0.172 | 2.91
HCI-024, days in culture: 163 | 1.91 | 2.21 | 0.305 | 0.221 | 0.181 | 0.166 | 0.306 | 1.89

HCI-003.E2
Details | CTG-3D luminescence at 96 h
12.5 pM | 2.05
0.00025 µM | 2.19
0.005 µM | 0.395
0.1 µM | 0.38
1 µM | 0.268
10 µM | 0.302
100 µM | 0.113
625 fM | 1.51
